Data set [1] deals with T1, CYP2D6 (Homo sapiens, UniProt P10635). In words: CYP2D6 inhibition in human liver microsomes. Format: in vitro ADME.
Data set [2] addresses CYP3A4 (Homo sapiens, UniProt P08684). In words: CYP3A4 inhibition in human liver microsomes. It is filed as in vitro ADME. The following applies: HLM; TV‐45065 0.05 to 50 μmol l^–1. A general note: Liver microsomes are a subcellular fraction often used to study metabolism.
Data set [3] has as its system CYP1A2. Format: in vitro ADME, human.
In data set [4] the test system is CYP2B6. It is filed as in vitro ADME, human.
The subject of data set [5] is CYP2C8. Format: in vitro ADME, human.
Data set [6] has as its system CYP2C9. It is filed as in vitro ADME, human.
Data set [7] has as its system CYP2C19. Format: in vitro ADME, human.
Data set [8] concerns CYP3A4/5. As to the kind of experiment: CYP3A4/5 induction in cultured human hepatocytes. It is filed as in vitro ADME.
The target of data set [9] is T2, CYP1A2 (Homo sapiens, UniProt P05177).
T2 sequence (P05177 1-516): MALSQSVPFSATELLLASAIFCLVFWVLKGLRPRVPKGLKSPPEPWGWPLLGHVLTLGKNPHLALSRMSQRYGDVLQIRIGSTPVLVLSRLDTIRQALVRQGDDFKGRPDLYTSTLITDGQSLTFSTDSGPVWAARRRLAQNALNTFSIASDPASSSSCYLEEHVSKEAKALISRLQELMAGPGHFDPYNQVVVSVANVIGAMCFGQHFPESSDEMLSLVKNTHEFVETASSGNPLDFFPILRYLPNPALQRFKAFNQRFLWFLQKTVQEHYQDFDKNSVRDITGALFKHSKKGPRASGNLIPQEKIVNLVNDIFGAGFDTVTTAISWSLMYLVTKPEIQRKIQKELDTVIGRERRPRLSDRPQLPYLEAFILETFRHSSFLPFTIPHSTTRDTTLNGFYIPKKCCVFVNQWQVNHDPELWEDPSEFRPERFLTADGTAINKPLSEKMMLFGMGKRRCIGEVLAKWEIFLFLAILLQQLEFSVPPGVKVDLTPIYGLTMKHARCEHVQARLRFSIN
The following applies: HLM; TV‐45065 0.05 to 50 μmol l^–1.

In data set [10] the target is T3, CYP2C8 (Homo sapiens, UniProt P10632).
T3 sequence (P10632 1-490): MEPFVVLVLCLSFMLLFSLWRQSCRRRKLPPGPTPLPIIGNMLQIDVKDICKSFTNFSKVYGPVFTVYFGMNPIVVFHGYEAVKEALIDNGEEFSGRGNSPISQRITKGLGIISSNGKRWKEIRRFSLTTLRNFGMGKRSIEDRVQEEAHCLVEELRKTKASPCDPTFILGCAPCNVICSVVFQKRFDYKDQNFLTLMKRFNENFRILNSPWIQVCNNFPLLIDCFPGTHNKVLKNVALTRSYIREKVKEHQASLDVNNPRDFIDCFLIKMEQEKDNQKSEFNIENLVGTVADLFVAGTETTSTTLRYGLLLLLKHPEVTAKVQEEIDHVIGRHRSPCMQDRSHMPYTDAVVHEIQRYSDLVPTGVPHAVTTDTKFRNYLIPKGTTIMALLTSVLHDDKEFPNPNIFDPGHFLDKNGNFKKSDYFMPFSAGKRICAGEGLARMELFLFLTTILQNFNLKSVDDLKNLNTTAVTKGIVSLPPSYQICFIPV
The following applies: HLM; TV‐45065 0.05 to 50 μmol l^–1; printed CYP2C8/9.

For data set [11], the target named is CYP2C9 (Homo sapiens, UniProt P11712). Conditions: HLM; TV‐45065 0.05 to 50 μmol l^–1; printed CYP2C8/9.
The target in data set [12] is CYP2C19 (Homo sapiens, UniProt P33261). The following applies: HLM; TV‐45065 0.05 to 50 μmol l^–1.
The conditions of data set [13]: cited from earlier work; for elimination half‐life: metabolite.
In data set [14] the target is T1, CYP2D6. In words: clinical. The following applies: plasma, 100 mg.
The target in data set [15] is T1, CYP2D6.
A short description of data set [16]: Safety and adverse events in the phase‐1 study in healthy subjects. Format: in vivo, human.
Data set [17] deals with T1, CYP2D6. The following applies: up to 100 μmol l^–1 pridopidine.
A short description of data set [18]: clinical. The following applies: human, plasma, oral, 45 mg.
Assay in data set [19]: not given
This is another data set of the same source.

The mark [20] stands for this setting: up to 50 μmol l^–1 TV‐45065, three consecutive days.
The mark [21] stands for this setting: caused by steady‐state pridopidine (discussion).
The mark [22] stands for this setting: metoprolol coadministered with pridopidine vs alone.
[23] abbreviates: up to 100 μmol l^–1 pridopidine, 3 days, three hepatocyte cultures.
Setting [24] is: up to 100 μmol l^–1 pridopidine, cultured human hepatocytes.

The values that follow come from PMC5595947 (British Journal of Clinical Pharmacology, 2017).

Where two headings read alike, the source gives them in different places.

T1 sequence (P10635 whole entry): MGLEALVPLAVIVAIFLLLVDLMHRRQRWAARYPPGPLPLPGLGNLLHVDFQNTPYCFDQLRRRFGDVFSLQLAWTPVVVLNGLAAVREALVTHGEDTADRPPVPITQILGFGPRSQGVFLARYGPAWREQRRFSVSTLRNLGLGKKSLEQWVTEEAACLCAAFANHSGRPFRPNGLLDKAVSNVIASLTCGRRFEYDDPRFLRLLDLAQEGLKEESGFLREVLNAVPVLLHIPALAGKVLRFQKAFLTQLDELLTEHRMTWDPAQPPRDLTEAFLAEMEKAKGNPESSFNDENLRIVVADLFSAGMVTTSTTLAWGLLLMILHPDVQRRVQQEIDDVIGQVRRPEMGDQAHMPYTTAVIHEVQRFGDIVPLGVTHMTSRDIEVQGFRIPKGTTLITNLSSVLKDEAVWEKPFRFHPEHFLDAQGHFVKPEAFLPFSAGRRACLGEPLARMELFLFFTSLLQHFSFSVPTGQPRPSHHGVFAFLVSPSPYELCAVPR
CYP3A4, sequence (P08684 2-503): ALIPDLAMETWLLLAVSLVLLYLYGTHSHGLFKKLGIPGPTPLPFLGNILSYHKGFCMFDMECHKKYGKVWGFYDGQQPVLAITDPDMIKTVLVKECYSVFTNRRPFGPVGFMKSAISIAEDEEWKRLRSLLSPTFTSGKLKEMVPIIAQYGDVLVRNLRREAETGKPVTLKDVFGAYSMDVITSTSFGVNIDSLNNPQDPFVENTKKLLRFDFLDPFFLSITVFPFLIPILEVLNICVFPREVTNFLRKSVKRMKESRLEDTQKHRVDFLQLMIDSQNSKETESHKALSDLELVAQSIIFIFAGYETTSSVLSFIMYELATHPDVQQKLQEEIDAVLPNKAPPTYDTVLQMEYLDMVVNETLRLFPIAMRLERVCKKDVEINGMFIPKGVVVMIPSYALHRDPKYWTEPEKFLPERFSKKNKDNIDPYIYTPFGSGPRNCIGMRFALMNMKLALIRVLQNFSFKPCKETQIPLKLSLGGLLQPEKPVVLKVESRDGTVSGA
CYP2C9 (Homo sapiens, UniProt P11712), sequence (P11712 whole entry): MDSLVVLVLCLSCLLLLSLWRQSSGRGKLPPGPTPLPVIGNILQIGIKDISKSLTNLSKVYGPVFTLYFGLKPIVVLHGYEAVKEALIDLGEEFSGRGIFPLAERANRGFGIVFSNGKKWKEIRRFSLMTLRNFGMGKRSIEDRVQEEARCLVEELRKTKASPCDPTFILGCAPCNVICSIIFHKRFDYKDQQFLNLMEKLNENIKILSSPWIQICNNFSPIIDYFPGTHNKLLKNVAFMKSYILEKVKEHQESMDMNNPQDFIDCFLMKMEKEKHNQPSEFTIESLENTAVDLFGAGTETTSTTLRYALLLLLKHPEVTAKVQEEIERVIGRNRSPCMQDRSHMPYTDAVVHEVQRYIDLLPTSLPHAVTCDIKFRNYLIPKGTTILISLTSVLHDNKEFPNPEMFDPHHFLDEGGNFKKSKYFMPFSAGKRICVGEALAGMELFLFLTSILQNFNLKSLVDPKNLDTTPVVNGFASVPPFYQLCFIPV
CYP2C19 (Homo sapiens, UniProt P33261), sequence (P33261 whole entry): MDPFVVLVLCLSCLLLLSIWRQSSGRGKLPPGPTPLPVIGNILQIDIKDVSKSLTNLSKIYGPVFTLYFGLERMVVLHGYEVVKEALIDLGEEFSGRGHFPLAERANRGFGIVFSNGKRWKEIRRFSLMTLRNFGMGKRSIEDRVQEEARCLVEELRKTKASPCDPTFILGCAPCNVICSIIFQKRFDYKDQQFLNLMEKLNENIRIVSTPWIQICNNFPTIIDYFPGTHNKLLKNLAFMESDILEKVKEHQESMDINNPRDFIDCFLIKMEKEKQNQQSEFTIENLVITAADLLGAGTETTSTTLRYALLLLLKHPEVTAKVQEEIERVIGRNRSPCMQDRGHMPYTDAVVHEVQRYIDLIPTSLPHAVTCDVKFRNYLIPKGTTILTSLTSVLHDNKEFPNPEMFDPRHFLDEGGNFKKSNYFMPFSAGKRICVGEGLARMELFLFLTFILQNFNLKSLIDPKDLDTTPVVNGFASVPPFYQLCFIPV

With `CS(=O)(=O)c1cccc(C2CCNCC2)c1` [TV‐45065], the “direct inhibition of CYP2D6” value in data set [1] (HLM, TV‐45065 0.05 to 50 μmol l^–1) was “did not show any direct inhibition”. Moreover, the IC50 in data set [1] (read-out: IC50, time‐/metabolism‐dependent inhibition of CYP2D6, HLM, TV‐45065 0.05 to 50 μmol l^–1) was over 50 µM. Moreover, the “direct inhibition of CYP3A4” value in data set [2] is “did not show any direct inhibition”. Besides, in data set [3] (setting [20]), the “CYP1A2 induction, effectiveness relative to positive control CYP inducer” value is at most 20% and the “increase in CYP1A2 activity or mRNA expression (on average)” value is at most 2.0 fold. Also, in [4] (setting [20]), the “CYP2B6 induction, effectiveness relative to positive control CYP inducer” value is listed as at most 20% and the “increase in CYP2B6 activity or mRNA expression (on average)” value is at most 2.0 fold. Also, in [5] (setting [20]), the “CYP2C8 induction, effectiveness relative to positive control CYP inducer” value is at most 20% and the “increase in CYP2C8 activity or mRNA expression (on average)” value is recorded as at most 2.0 fold. In addition, in data set [6] (setting [20]), the “CYP2C9 induction, effectiveness relative to positive control CYP inducer” value is reported as at most 20% and the “increase in CYP2C9 activity or mRNA expression (on average)” value is at most 2.0 fold. Further, in data set [7] (setting [20]), the “CYP2C19 induction, effectiveness relative to positive control CYP inducer” value is recorded as at most 20% and the “increase in CYP2C19 activity or mRNA expression (on average)” value is given as at most 2.0 fold. Besides, in [8] (setting [20]), the “CYP3A4/5 induction, effectiveness relative to positive control CYP inducer” value is at most 20% and the “increase in CYP3A4/5 activity or mRNA expression (on average)” value is on record as at most 2.0 fold. Besides, in data set [9], the “direct inhibition of CYP1A2” value is “did not show any direct inhibition”. Further, the “direct inhibition of CYP2C8” value in data set [10] was “did not show any direct inhibition”. For the same molecule, the “direct inhibition of CYP2C9” value in data set [11] is “did not show any direct inhibition”. In addition, the “direct inhibition of CYP2C19” value in data set [12] was “did not show any direct inhibition”. Further, the “elimination half‐life” value in data set [13] (repeated administration, extensive metabolizers) is on record as 17 h. The “elimination half‐life” value in data set [13] (repeated administration, poor metabolizers) is listed as 19 h. In data set [13] (single dose administration, extensive metabolizers), the “elimination half‐life” value is “approximately 8 h”. Besides, in [13] (single dose administration, poor metabolizers), the “elimination half‐life” value is on record as about 32 h. The “Cmax and AUC, fed vs fasted states” value (metabolite after single 90‐mg pridopidine dose, data not shown) is given as “similar”.
Consider `COCCc1ccc(OCC(O)CNC(C)C)cc1` (stereo not shown) [metoprolol], for which the Tmax in data set [14] (oral) lay within 0.75 to 2 h. Moreover, in [14] (po), the total exposure AUC(0-inf) amounted to 460 ng·h/mL, the exposure AUC(0-t) turned out to be 447 ng·h/mL, the Cmax is 84 ng/mL and the time to peak (Tmax) is about 2 h. Moreover, in data set [15] (setting [21]), the “increase in metoprolol AUC” value is given as “up to 5 fold” and the “increase in metoprolol peak concentrations” value is given as “up to 3 fold”. In addition, the “t½, mean (SD)” value in [15] (metoprolol 100 mg single oral dose alone) was 3.69 (0.83) h. Also, in data set [15] (setting [22]), the “increase in mean AUC0–∞” value worked out at 5.1 fold and the “increase in mean Cmax” value is 3.5 fold. In [15] (metoprolol during coadministration with pridopidine), the range of tmax is 1 to 4 h.
In the case of `CCCN1CCC(c2cccc(S(C)(=O)=O)c2)CC1` [pridopidine, 4‐[3‐(methylsulfonyl)phenyl]‐1‐propylpidperidine], the “effect of heat inactivation of FMO on CYP2D6 MDI extent” value in data set [1] (HLM heat treated (50°C, 2 min)) is on record as “did not affect”. In addition, the IC50 came to 39 µM in [1] (IC50, direct inhibition (no preincubation), HLM, preincubation time row 2 h); 39 µM in data set [1] (IC50, direct inhibition (no preincubation), HLM, preincubation time row 3 h); 39 µM in data set [1] (IC50, direct inhibition (no preincubation), HLM, preincubation time row 4 h). In addition, the “reversibility of metabolism‐dependent inhibition of CYP2D6” value in data set [1] (microsomal re‐isolation or addition of potassium ferricyanide) is on record as “not reversed”. Besides, the “change in CYP1A2 mRNA levels” value in data set [3] (setting [23]) is under 2 fold. Besides, the “change in CYP1A2 activity” value in data set [3] (setting [24]) is under 2 fold. Besides, in data set [4] (setting [23]), the “change in CYP2B6 mRNA levels” value is listed as under 2 fold. Further, the “change in CYP2B6 activity” value in data set [4] (setting [24]) was under 2 fold. Besides, the “change in CYP2C8 mRNA levels” value in data set [5] (setting [23]) is under 2 fold. Moreover, the “change in CYP2C8 activity” value in data set [5] (setting [24]) was under 2 fold. Besides, the “change in CYP2C9 mRNA levels” value in data set [6] (setting [23]) is under 2 fold. In addition, the “change in CYP2C9 activity” value in data set [6] (setting [24]) is recorded as under 2 fold. For the same molecule, the “change in CYP2C19 mRNA levels” value in data set [7] (setting [23]) is on record as under 2 fold. Further, the “change in CYP2C19 activity” value in [7] (setting [24]) is listed as under 2 fold. The “change in CYP3A4 mRNA levels” value in data set [8] (setting [23]) is listed as under 2 fold. Also, the “amnestic aphasia, subjects” value in data set [16] (following BID administration, two subjects) is listed as 9.1%. Further, the “increase in pulse rate” value in data set [16] (pridopidine 45 mg BID) is “up to 12 beats min^–1”. Moreover, in data set [17] (hepatocyte cultures, vehicle 0.1% DMSO), the “decrease in CYP2D6 activity compared to vehicle control” value was “up to 64.2%”. Further, in [17] (3 days, three hepatocyte cultures), the “change in CYP2D6 mRNA levels” value is under 2 fold. In data set [18], this molecule displayed a Cmax of 525 ng/mL. In addition, the “time (tmax) to reach Cmax” value in data set [13] (oral administration) is “roughly 2 h”. The “mean peak concentration in plasma” value is on record as 303 ng ml^–1 in data set [13] (single 45‐mg dose) and 620 ng ml^–1 in data set [13] (steady state following 14 days of 45 mg BID dosing). Moreover, the pridopidine exposure in [13] (single dose, extensive metabolizers) is listed as 3782 ng h ml^–1; in data set [13] (single dose, poor metabolizers), 11 192 ng h ml^–1; in [13] (steady state, extensive metabolizers) it was 9338 ng h ml^–1; in [13] (steady state, poor metabolizers), 12 080 ng ml^–1. Moreover, in data set [19] (45 mg BID for 7 days, PM (6–18 h), metoprolol given with PM dose), the “Cmax,ss, mean (SD)” value was 727.30 (152.38) ng ml^–1. For the same molecule, the “Cav,ss, mean (SD)” value is listed as 407.29 (90.82) in data set [19] (45 mg BID, AM (0–6 h)) and 447.33 (92.19) in [19] (45 mg BID, PM (6–18 h)). Moreover, the “AUCss, mean (SD)” value was 2443.75 (544.95) ng h ml^–1 in [19] (45 mg BID, AM (0–6 h), AUC0–6) and 8052.03 (1659.34) ng h ml^–1 in data set [19] (45 mg BID, PM (6–18 h), AUC0–18 following the afternoon dose). For the same molecule, the “time of BID dosing after which steady state was reached” value in [19] (45 mg BID, morning trough plasma levels) is 7 days. Besides, under “single 90‐mg dose”, the “difference in median tmax, fed state in comparison to fasted state” value stood at 1.5 h.

As a reminder, the Tmax is the time from dosing to the highest level. In general, AUC(0-inf) refers to total exposure, with the tail of the curve extrapolated. A high value points to high exposure. By AUC(0-t) is commonly meant exposure summed from dosing to a finite time, without extrapolation to infinity. Broadly, the Cmax is the peak of the concentration-time curve.
